Experimental data as given in patent US20200390766A1, “PHARMACEUTICAL COMPOSITION” (Kowa Company, Ltd., priority 2019, published 2020).

How the values were obtained:
Format in all cases: in vivo, male ICR mice
[1] = tested on: pulmonary fibrosis model mice exposed to bleomycin in the trachea; assay: Therapeutic effect on pulmonary fibrosis (Example 2): amount of hydroxyproline in the lungs; conditions: day 21, Dunnett test, FIG. 3
Protocol: The lung tissue extracted from the mouse was homogenized in a PBS solution, then mixed with an equal volume of 12N hydrochloric acid in a tube, and incubated at 110° C. for 20 to 24 hours. After the incubation, the solution was volatilized by opening the tube and continuing the incubation. Thereafter, the resulting mixture was suspended in a citrate acetate buffer (5% citric acid, 1.2% glacial acetic acid, 7.25% sodium acetate, 3.4% sodium hydroxide, pH 6.0), and the solution filtered with a 0.45 μm diameter centrifugal filter was used as a sample. 10 μL of the sample was added with 100 μL of chloramine T solution (1.4% chloramine T, 10% n-propanol, 80% citrate acetate buffer) and incubated at room temperature for 20 minutes, then added with 100 μL of Ehrlich's reagent (1 M p-dimethylamino benzaldehyde, 20% perchloric acid, 50% n-propanol) and incubated at 65° C. for 15 minutes, and the absorbance at 550 nm was measured to quantify the amount of hydroxyproline.
(§1) Compound A was dissolved in a 0.5% aqueous solution of methylcellulose (methylcellulose: Shin-Etsu Chemical Co., Ltd., distilled water: Otsuka Pharmaceutical Factory, Inc.) to prepare a sample solution. Further, losartan (Tokyo Chemical Industry Co., Ltd.) was dissolved in a 0.5% aqueous solution of methylcellulose to prepare a sample solution. Furthermore, pirfenidone (Ark Pharma Inc.) was dissolved in a 0.5% aqueous solution of carboxymethyl cellulose (carboxymethyl cellulose: Maruishi Pharmaceutical Co., Ltd.) to prepare a sample solution.
Model mice were prepared in the same manner as in Example 1.
(§2) Investigation was conducted in mice not exposed to bleomycin (exposed to physiological saline in the trachea) in the normal group (6 mice), and pulmonary fibrosis model mice exposed to bleomycin in the trachea divided into 4 groups (control, compound A 50 mg/kg/day, losartan 50 mg/kg/day, and pirfenidone 400 mg/kg/day; 10 mice in each group). […]
The amount of hydroxyproline in the mice was measured by the same method as in Example 1.

[2] = tested on: pulmonary fibrosis model mice exposed to bleomycin in the trachea; assay: Preventive effect on pulmonary fibrosis (Example 1): amount of hydroxyproline in the lungs; conditions: 50 mg/kg/day oral once a day from the day after bleomycin exposure, day 21, FIG. 2; for amount of hydroxyproline in the lungs as compared to the control group: Dunnett test
Protocol: as §1, with “methylcellulose” for “carboxymethyl cellulose (carboxymethyl cellulose: Maruishi Pharmaceutical Co., Ltd.)”
(§3) 6-week-old male ICR mice (Japan SLC, Inc.) were exposed to bleomycin (Nippon Kayaku Co., Ltd.) (1.5 mg/kg) dissolved in physiological saline in the trachea to prepare pulmonary fibrosis model mice.
as §2
The lung tissue extracted from the mouse was homogenized in a PBS solution, then mixed with an equal volume of 12N hydrochloric acid in a tube, and incubated at 110° C. for 20 to 24 hours. […] 10 μL of the sample was added with 100 μL of chloramine T solution (1.4% chloramine T, 10% n-propanol, 80% citrate acetate buffer) and incubated at room temperature for 20 minutes, then added with 100 μL of Ehrlich's reagent (1 M p-dimethylamino benzaldehyde, 20% perchloric acid, 50% n-propanol) and incubated at 65° C. for 15 minutes, and the absorbance at 550 nm was measured to quantify the amount of hydroxyproline.

[3] = tested on: pulmonary fibrosis model mice exposed to bleomycin in the trachea; assay: Preventive effect on pulmonary fibrosis (Example 1): lung wet weight; conditions: FIG. 1; for lung weight as compared to the normal group: lungs extracted 21 days after exposure
Protocol: as §1, with “methylcellulose” for “carboxymethyl cellulose (carboxymethyl cellulose: Maruishi Pharmaceutical Co., Ltd.)”
as §3
Investigation was conducted in mice not exposed to bleomycin (exposed to physiological saline in the trachea) in the normal group (6 mice), and pulmonary fibrosis model mice exposed to bleomycin in the trachea divided into 4 groups (control, compound A 50 mg/kg/day, losartan 50 mg/kg/day, and pirfenidone 400 mg/kg/day; 10 mice in each group). From the day after exposure to bleomycin, a 0.5% aqueous solution of methylcellulose was orally administered (administered twice a day) to the normal group and the control group, the sample solution of compound A prepared above was orally administered (administered once a day) to the compound A administration group, the sample solution of losartan prepared above was orally administered (administered once a day) to the losartan administration group, and the sample solution of pirfenidone prepared above was orally administered (administered twice a day) to the pirfenidone administration group, respectively. Twenty-one days after the bleomycin exposure, the mice were anesthetized and whole lung tissues were extracted.
After washing the lung tissue extracted from the mouse with physiological saline, water was removed with a filter paper, and the wet weight was measured.

[4] = 50 mg/kg/day oral once a day from the 7th day after bleomycin exposure
[5] = 50 mg/kg/day oral once a day from the day after bleomycin exposure

SMILES	amount of hydroxyproline in the lungs as compared to the control group [1, 4]	amount of hydroxyproline in the lungs as compared to the control group [2]	decrease of hydroxyproline in the lung relative to the losartan administration group [2]	lung weight as compared with the control group ([3]; 50 mg/kg/day oral once a day from the day after bleomycin exposure, day 21, Dunnett test)	lung weight as compared to the normal group [3, 5]	amount of hydroxyproline in the lungs as compared to the control group ([1]; 400 mg/kg/day oral twice a day from the 7th day after bleomycin exposure)	lung weight as compared to the normal group ([3]; 400 mg/kg/day oral twice a day from the day after bleomycin exposure)
CCCc1nc(C(C)C)n(-c2ncc(OCC)cn2)c(=O)c1Cc1ccc(-c2ccccc2-c2noc(=O)[nH]2)nc1 [compound A, 3-[2-(5-{[1-(5-ethoxypyrimidin-2-yl)-2-isopropyl-6-oxo-4-propyl-1,6-dihydropyrimidin-5-yl]methyl}pyridin-2-yl)phenyl]-1,2,4-oxadiazol-5(4H)-one]	significant decrease in hydroxyproline in the lung	significant decrease in hydroxyproline in the lung	larger decrease than the losartan administration group	significant decrease in lung weight	no significant increase in lung weight	–	–
CCCCc1nc(Cl)c(CO)n1Cc1ccc(-c2ccccc2-c2nn[nH]n2)cc1 [losartan]	no significant difference	significant decrease in hydroxyproline in the lung	–	–	significant increase in lung weight	–	–
Cc1ccc(=O)n(-c2ccccc2)c1 [pirfenidone]	–	–	–	–	–	no significant difference	significant increase in lung weight
